According to ChEMBL document CHEMBL1123668, “Inhibition of aspartic proteinases by peptides containing lysine and ornithine side-chain analogues of statine” (J Med Chem, 1987):
Square brackets hold non-standard residues; d marks the D form. Peptide text beside a SMILES is read from it. * marks the point of attachment. ξ: configuration not given here. Sta = CC(C)C[C@H](N)[C@@H](O)CC(=O)O; Isovaleryl = CC(C)CC(=O)*; ξF = NC(Cc1ccccc1)C(=O)O

Key:
Rhizopuspepsin = molecular target: T1, Rhizopuspepsin (Rhizopus microsporus var. chinensis, UniProt P06026); test: Inhibition of Rhizopus chinensis pepsin
T1 sequence (P06026 whole entry): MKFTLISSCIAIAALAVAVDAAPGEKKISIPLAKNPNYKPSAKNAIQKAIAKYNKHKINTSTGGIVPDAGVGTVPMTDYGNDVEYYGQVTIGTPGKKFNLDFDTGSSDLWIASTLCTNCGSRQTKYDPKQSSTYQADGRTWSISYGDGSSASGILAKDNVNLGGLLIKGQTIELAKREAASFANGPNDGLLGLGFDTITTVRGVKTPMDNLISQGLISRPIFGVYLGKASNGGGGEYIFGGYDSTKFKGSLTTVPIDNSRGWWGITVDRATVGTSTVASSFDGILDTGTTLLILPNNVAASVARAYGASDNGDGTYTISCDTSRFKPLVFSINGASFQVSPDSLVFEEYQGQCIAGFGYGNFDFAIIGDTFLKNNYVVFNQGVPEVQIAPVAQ

[1] = Compound was evaluated for the inhibition of […] penicillopepsin; ( Value is time-dependent inhibition (TDI) with T1/2 > 30 s.)
[2] = Compound was evaluated for the inhibition of […] penicillopepsin; Value is time-dependent inhibition (TDI) with T1/2 > 30 s)
Pepsin A = Pepsin A (Sus scrofa, UniProt P00791); test: Compound was evaluated for the inhibition of porcine pepsin
Chain of Pepsin A (P00791 whole entry): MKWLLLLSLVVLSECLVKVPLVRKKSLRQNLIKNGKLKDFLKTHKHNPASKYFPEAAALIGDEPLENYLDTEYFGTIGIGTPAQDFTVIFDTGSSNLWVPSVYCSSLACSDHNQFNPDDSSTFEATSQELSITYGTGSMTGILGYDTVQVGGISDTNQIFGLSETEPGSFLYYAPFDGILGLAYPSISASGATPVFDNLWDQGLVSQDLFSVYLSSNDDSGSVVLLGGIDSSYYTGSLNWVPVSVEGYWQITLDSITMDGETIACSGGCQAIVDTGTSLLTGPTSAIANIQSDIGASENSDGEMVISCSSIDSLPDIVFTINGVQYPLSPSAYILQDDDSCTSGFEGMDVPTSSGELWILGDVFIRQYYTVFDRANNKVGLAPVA

[3] = Compound was evaluated for the inhibition of porcine penicillopepsin

Row | Compound | Ki (Rhizopuspepsin) | Ki [2] | Ki (Pepsin A) | Ki [3] | Ki [1]
1 | COC(=O)C(Cc1ccccc1)NC(=O)C[C@H](O)[C@H](CCCCN)NC(=O)[C@H](NC(=O)C(NC(=O)CC(C)C)C(C)C)C(C)C (stereo partly specified) | – | – | – | – | 0.08 nM
2 | COC(=O)C(Cc1ccccc1)NC(=O)C[C@H](O)[C@H](CC(C)C)NC(=O)[C@@H](NC(=O)[C@@H](NC(=O)CC(C)C)C(C)C)C(C)C (stereo partly specified) (Isovaleryl-VV[Sta][ξF]-OMe) | 11 nM | – | – | – | 1.3 nM
3 | CCOC(=O)C[C@H](O)[C@H](CCCCNC(C)=O)NC(=O)[C@H](NC(=O)C(NC(=O)CC(C)C)C(C)C)C(C)C (stereo partly specified) | 29 nM | – | 1900 nM | 100 nM | –
4 | CCOC(=O)C[C@H](O)[C@H](CC(C)C)NC(=O)[C@@H](NC(=O)[C@@H](NC(=O)CC(C)C)C(C)C)C(C)C (Isovaleryl-Val-Val-[Sta]-OEt) | 42 nM | – | – | 47 nM | –

The next lines start with results.

Row | Ki (Rhizopuspepsin) | Ki [2] | Ki (Pepsin A) | Ki [3] | Compound | Ki [1]
5 | 33 nM | – | – | – | CCOC(=O)C[C@H](O)[C@H](CCCCN)NC(=O)[C@H](NC(=O)C(NC(=O)CC(C)C)C(C)C)C(C)C (stereo partly specified) | –
6 | 47 nM | 1.1 nM | – | – | CCOC(=O)CC(O)[C@H](CCCN)NC(=O)[C@H](NC(=O)C(NC(=O)CC(C)C)C(C)C)C(C)C (stereo partly specified) | –
